Legend:
[1] = molecular target: T1, FZD7 (Homo sapiens, UniProt O75084); test: NanoBRET screen HiBiT-FZD7 in HEK293; type: binding
T1 construct: purchased Promega (in-house HiBiT-GPCR construct library, NanoBRET)
Protocol: (§1) Each tracer candidate was screened across the entire library of HiBiT-GPCR constructs using NanoBRET as the detection modality. As depicted in Figure 4A, the specificity of interactions was evaluated through decrease in BRET due to competitive displacement of a bound tracer by excess parental compound. Each tracer was analyzed for binding to each HiBiT-GPCR fusion in the absence and in the presence of competing parental compound. Briefly, HEK293 cells were transfected with HiBiT-GPCR constructs diluted into promoterless DNA to reduce expression and maximize translocation to the cell surface. Each tracer candidate was then screened at concentrations of 1 μM and 0.1 μM across cells expressing these fusions. Cells were treated for 1.5 h with tracer either alone or in the presence of 20 μM competing parental compound (i.e., control). BRET was measured upon addition of purified LgBiT and subsequent complementation with HiBiT genetically fused to a GPCR. The specificity of interactions was assessed through a decrease in BRET signal due to competitive displacement of the bound tracer. To further gauge the robustness of these interactions, the fold response over the control (i.e., BRETtracer/BRETcontrol) was calculated. We chose a 1.5-fold response, which translates to ≥7-fold signal over noise as the minimal threshold required to score an interaction as positive. […]. Below we highlight the screening results obtained for our exemplary fluorescent tracers based on Clozapine, Amitriptyline and AZD1283.
(§2) HiBiT-GPCR DNA constructs were diluted in 10 mM Tris pH 8 to a final concentration of 0.01 μg/μL, arrayed in 96-well plates and stored at −20 °C. For transfection, HEK293 cells were suspended in Opti-MEM (without phenol red) supplemented with 2% fetal bovine serum (Seradigm) and 100 units/mL penicillin–streptomycin (Gibco) at a final concentration of 220,000 cells/mL and dispensed into white 96-well plates at 90 μL/well. Subsequent transfections and screens were carried using an Agilent Bravo Automated Liquid Handling Platform. First, the 96-well HiBiT DNA arrays were diluted 25-fold in Opti-MEM (without serum or phenol red) to a final concentration of 0.0004 μg/μL and 20 μL of the diluted DNAs were transferred into new 96-well plates. Next, promoterless carrier DNA (1 μg/μL) was diluted 25-fold (0.04 μg/μL) and then dispensed into the diluted arrays at 20 μL/well. Following brief mixing, Viafect transfection reagent (Promega) diluted 16-fold into Opti-MEM was dispensed into the plates at 40 μL/well. After mixing by pipetting, plates were incubated for 10 min on the pipetting station deck. The DNA-transfection reagent complexes were then added to plates containing cells. To facilitate the screen, 10 μL of DNA-transfection reagent complexes were added in duplicates to the top 4 and bottom 4 rows, resulting in two identical 48-well arrays per plate. Plates with transfected cells were incubated for 18–20 h at 37 °C/5% CO2. A screen of each tracer across the entire library using two different concentrations requires duplicate plates of transfected cells. Depending on the number of tracers being screened, transfections can be scaled up using the same ratios. The next day, for each tracer, four 20× screening solutions in tracer dilution buffer (Promega) were prepared: two duplicates at final concentration of 20 μM and two duplicates at a final concentration of 2 μM. A competing unmodified compound was added to one of each duplicate at a final concentration of 400 μM. The four resulting solutions were diluted 4-fold in Opti-MEM without serum or phenol red to generate 5× solutions (5 µM and 0.5 µM tracer +/− 100 μM competing compound). To screen the library, a BioTek MultiFlo FX liquid dispenser was used to dispense 22.5 µL of tracer solution to the top 4 rows and 22.5 µL tracer + competing compound solution to the 4 bottom rows. Plates were briefly mixed on an orbital shaker and incubated for 1.5 h at room temperature. […]

[2] = molecular target: T2, P2RY1 (Homo sapiens, UniProt P47900); test: NanoBRET screen HiBiT-P2RY1 in HEK293; type: binding
T2 construct: purchased Promega (in-house HiBiT-GPCR construct library, NanoBRET)
T2 sequence (P47900 whole entry): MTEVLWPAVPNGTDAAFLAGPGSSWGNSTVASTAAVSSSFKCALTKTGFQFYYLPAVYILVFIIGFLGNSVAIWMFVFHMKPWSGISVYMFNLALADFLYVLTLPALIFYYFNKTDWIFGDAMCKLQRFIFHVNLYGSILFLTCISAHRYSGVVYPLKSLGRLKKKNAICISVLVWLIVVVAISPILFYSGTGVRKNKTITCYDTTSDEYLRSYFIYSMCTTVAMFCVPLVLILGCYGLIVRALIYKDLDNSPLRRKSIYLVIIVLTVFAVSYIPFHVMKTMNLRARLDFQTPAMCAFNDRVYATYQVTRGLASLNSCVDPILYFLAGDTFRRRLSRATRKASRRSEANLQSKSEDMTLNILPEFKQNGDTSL
Protocol: as §1, §2

[3] = tracer at 0.1μM, listed as amitriptyline-b-2-NB590

SMILES	NanoBRET Fold Response ([1]; FZD7, tracer 0.1μM)	NanoBRET Fold Response ([1]; FZD7, tracer 1μM)	NanoBRET Fold Response ([2]; P2RY1, tracer 0.1μM)	NanoBRET Fold Response ([2]; P2RY1, tracer 1μM)	further results
CCOC(=O)c1cc(C#N)c(N2CCC(C(=O)NS(=O)(=O)Cc3ccccc3/C=C/C(=O)NCCNC(=O)CCc3ccc4n3[B-](F)(F)[N+]3=C(c5ccc[nH]5)C=CC3=C4)CC2)nc1C [AZD1283-1-NB590]	–	–	–	–	NanoBRET Fold Response ([1]; FZD7, 0.1μM): 1.03; NanoBRET Fold Response ([1]; FZD7, 1μM): 1.04; NanoBRET Fold Response ([2]; P2RY1, 0.1μM): 1.06; NanoBRET Fold Response ([2]; P2RY1, 1μM): 1.05
N#CN=C(NCCCOc1cccc(CN2CCCCC2)c1)NCCNC(=O)CCOCCOCCOCCOCCNC(=O)CCc1ccc2n1[B-](F)(F)[N+]1=C(c3ccc[nH]3)C=CC1=C2 [Aminopotentidine-2-NB590]	0.94	0.99	1.02	1.02	–
CN(C)CCC=C1c2ccccc2CCc2ccc(C(=O)NCCNC(=O)CCOCCOCCOCCOCCNC(=O)CCc3ccc4n3[B-](F)(F)[N+]3=C(c5ccc[nH]5)C=CC3=C4)cc21 [Amitriptyline-a-2-NB590]	–	–	–	–	NanoBRET Fold Response ([1]; tracer at 0.1μM): 0.89; NanoBRET Fold Response ([1]; tracer at 1μM): 0.97; NanoBRET Fold Response ([2]; tracer at 0.1μM): 0.97; NanoBRET Fold Response ([2]; tracer at 1μM): 1.01
CN(C)CCC=C1c2ccccc2CCc2ccc(C(=O)NCCNC(=O)CCOCCOCCOCCOCCNC(=O)CCc3ccc4n3[B-](F)(F)[N+]3=C(c5ccc[nH]5)C=CC3=C4)cc21 [Amitriptyline-b-2-NB590]	–	–	–	–	NanoBRET Fold Response [1, 3]: 1.16; NanoBRET Fold Response ([1]; tracer at 1μM, listed as amitriptyline-b-2-NB590): 1.16; NanoBRET Fold Response [2, 3]: 1.13
CN(CCC=C1c2ccccc2CCc2ccccc21)C(=O)CCOCCOCCOCCOCCNC(=O)CCc1ccc2n1[B-](F)(F)[N+]1=C(c3ccc[nH]3)C=CC1=C2 [Amitriptyline-e-2-NB590]	–	–	–	–	NanoBRET Fold Response ([1]; tracer at 1μM): 1.02; NanoBRET Fold Response ([2]; tracer at 1μM): 0.96
COc1ccc2c(n1)c(CCNC(C)=O)cn2CCNC(=O)CCc1ccc2n1[B-](F)(F)[N+]1=C(c3ccc[nH]3)C=CC1=C2 [Azamelatonin-1-NB590]	–	–	–	–	NanoBRET Fold Response ([1]; 0.1μM tracer): 1.11; NanoBRET Fold Response ([1]; 1μM tracer): 1.11; NanoBRET Fold Response ([2]; 0.1μM tracer): 0.99; NanoBRET Fold Response ([2]; 1μM tracer): 0.99
COc1ccc2[nH]c(-c3ccc(CNC(=O)CCOCCOCCOCCOCCNC(=O)CCc4ccc5n4[B-](F)(F)[N+]4=C(c6ccc[nH]6)C=CC4=C5)cc3)c(CCNC(C)=O)c2n1 [AzomelatoninICO9-2-NB590]	–	–	–	–	NanoBRET Fold Response ([1]; 0.1μM tracer): 1.29; NanoBRET Fold Response ([1]; 1μM tracer): 0.84; NanoBRET Fold Response ([2]; 0.1μM tracer): 0.99; NanoBRET Fold Response ([2]; 1μM tracer): 0.99
O=C(CCOCCOCCOCCOCCNC(=O)CCc1ccc2n1[B-](F)(F)[N+]1=C(c3ccc[nH]3)C=CC1=C2)NCCCN1CCN(C2=Nc3cc(Cl)ccc3Nc3ccccc32)CC1 [Clozapine-a-2-NB590]	–	–	–	–	NanoBRET Fold Response ([1]; FZD7, 0.1μM tracer): 1.00; NanoBRET Fold Response ([1]; FZD7, 1μM tracer): 0.98; NanoBRET Fold Response ([2]; P2RY1, 0.1μM tracer): 1.01; NanoBRET Fold Response ([2]; P2RY1, 1μM tracer): 0.94
CN1CCN(C2=Nc3cc(Cl)ccc3Nc3ccc(CNC(=O)CCOCCOCCOCCOCCNC(=O)CCc4ccc5n4[B-](F)(F)[N+]4=C(c6ccc[nH]6)C=CC4=C5)cc32)CC1 [Clozapine-b-2-NB590]	–	–	–	–	NanoBRET Fold Response ([1]; FZD7, 0.1μM tracer): 1.01; NanoBRET Fold Response ([1]; FZD7, 1μM tracer): 0.98; NanoBRET Fold Response ([2]; P2RY1, 0.1μM tracer): 1.03; NanoBRET Fold Response ([2]; P2RY1, 1μM tracer): 1.01
CN1CCN(C2=Nc3cc(Cl)ccc3N(CC(=O)NCCOCCOCCOCCOCCNC(=O)CCc3ccc4n3[B-](F)(F)[N+]3=C(c5ccc[nH]5)C=CC3=C4)c3ccccc32)CC1 [Clozapine-c-2-NB590]	–	–	–	–	NanoBRET Fold Response ([1]; FZD7, 0.1μM tracer): 0.98; NanoBRET Fold Response ([1]; FZD7, 1μM tracer): 1.00; NanoBRET Fold Response ([2]; P2RY1, 0.1μM tracer): 0.97; NanoBRET Fold Response ([2]; P2RY1, 1μM tracer): 1.03
O=C(CCOCCOCCOCCOCCNC(=O)CCc1ccc2n1[B-](F)(F)[N+]1=C(c3ccc[nH]3)C=CC1=C2)NCCCN1CCN(C2=Nc3ccccc3Oc3ccc(Cl)cc32)CC1 [Loxapine-a-2-NB590]	1.03	1.05	1.01	0.97	–
COc1ccccc1N1CCN(CCCCN2C(=O)c3ccc(CNC(=O)CCOCCOCCOCCOCCNC(=O)CCc4ccc5n4[B-](F)(F)[N+]4=C(c6ccc[nH]6)C=CC4=C5)cc3C2=O)CC1 [NAN-190-2-NB590]	1.00	1.03	0.97	–	–
COc1ccccc1N1CCN(CCCCN2C(=O)c3ccc(CNC(=O)CCOCCNC(=O)c4ccc(CNC(=O)CCc5ccc6n5[B-](F)(F)[N+]5=C(c7ccc[nH]7)C=CC5=C6)cc4)cc3C2=O)CC1 [NAN-190-3-NB590]	0.94	1.27	0.97	1.00	–
O=C(CCc1ccc2n1[B-](F)(F)[N+]1=C(c3ccc[nH]3)C=CC1=C2)NCc1ccc(C(=O)NCCOCCC(=O)N[C@@H]2CC[C@@]3(O)[C@H]4Cc5ccc(O)c6c5[C@@]3(CCN4CC3CC3)[C@H]2O6)cc1 [Naltrexone-3-NB590]	1.32	1.27	0.86	0.95	–
Cc1cc2c(s1)Nc1ccccc1N=C2N1CCN(CCCNC(=O)CCOCCOCCOCCOCCNC(=O)CCc2ccc3n2[B-](F)(F)[N+]2=C(c4ccc[nH]4)C=CC2=C3)CC1 [Olanzapine-a-2-NB590]	1.03	0.95	0.97	0.95	–
O=C(CCc1ccc2n1[B-](F)(F)[N+]1=C(c3ccc[nH]3)C=CC1=C2)NCc1ccc(C(=O)NCCOCCOCCNCC(O)COc2cccc3ccccc23)cc1 (centres unmarked) [Propranolol-3-NB590]	–	–	–	–	NanoBRET Fold Response ([1]; FZD7, 0.1μM): 1.01; NanoBRET Fold Response ([1]; FZD7, 1μM): 1.04; NanoBRET Fold Response ([2]; P2RY1, 0.1μM): 1.02; NanoBRET Fold Response ([2]; P2RY1, 1μM): 0.97
O=C(CCc1ccc2n1[B-](F)(F)[N+]1=C(c3ccc[nH]3)C=CC1=C2)NCCOCCOCCNC(=O)OCCOCCN1CCN(C2=Nc3ccccc3Sc3ccccc32)CC1 [Quetiapine-a-2-NB590]	1.04	0.91	1.00	1.01	–
Cc1nc2n(c(=O)c1CCN1CCC(c3noc4cc(F)ccc34)CC1)CCCC2OC(=O)NCCOCCOCCOCCOCCNC(=O)CCc1ccc2n1[B-](F)(F)[N+]1=C(c3ccc[nH]3)C=CC1=C2 (centres unmarked) [Risperidone-2-NB590]	0.98	1.04	0.98	0.97	–
CC(C)N(CC[C@H](c1ccccc1)c1cc(CCNC(=O)CCOCCOCCOCCOCCNC(=O)CCc2ccc3n2[B-](F)(F)[N+]2=C(c4ccc[nH]4)C=CC2=C3)ccc1O)C(C)C [Tolterodine-2-NB590]	1.00	1.12	0.97	1.00	–
CC(C)N(CC[C@H](c1ccccc1)c1cc(CCNC(=O)c2ccc(CNC(=O)CCc3ccc4n3[B-](F)(F)[N+]3=C(c5ccc[nH]5)C=CC3=C4)cc2)ccc1O)C(C)C [Tolterodine-BZ-NB590]	1.04	1.06	1.43	1.03	–
CCCn1c(=O)c2[nH]c(-c3ccc(OCC(=O)NCCNC(=O)CCOCCNC(=O)c4ccc(CNC(=O)CCc5ccc6n5[B-](F)(F)[N+]5=C(c7ccc[nH]7)C=CC5=C6)cc4)cc3)nc2n(CCC)c1=O [XAC-3-NB590]	1.09	1.01	1.05	0.96	–
